# Experimental data published in ChEMBL document CHEMBL1159075, “The chemical synthesis and antibiotic activity of a diverse library of 2-aminobenzimidazole small molecules against MRSA and multidrug-resistant A. baumannii” (Bioorg Med Chem, 2010).
# Legend:
# Acinetobacter baumannii [1] = assay: Antibacterial activity against Acinetobacter baumannii 3304 after 16 to 20 hrs by microdilution susceptibility test; format: functional
# Acinetobacter baumannii [2] = assay: Antibacterial activity against Acinetobacter baumannii AB0043 after 16 to 20 hrs by microdilution susceptibility test; format: functional
# Staphylococcus aureus [3] = assay: Antibacterial activity against Staphylococcus aureus ATCC 29740 after 16 to 20 hrs by microdilution susceptibility test; format: functional
# Staphylococcus aureus [4] = assay: Antibacterial activity against methicillin-resistant Staphylococcus aureus BAA-44 after 16 to 20 hrs by microdilution susceptibility test; format: functional
# Staphylococcus aureus [5] = assay: Antibacterial activity against Staphylococcus aureus ATCC 29213 after 16 to 20 hrs by microdilution susceptibility test; format: functional
# Acinetobacter baumannii [6] = assay: Antibacterial activity against multidrug-resistant Acinetobacter baumannii BAA-1605 after 16 to 20 hrs by microdilution susceptibility test; format: functional
# Acinetobacter baumannii [7] = assay: Antibacterial activity against Acinetobacter baumannii UH8407 after 16 to 20 hrs by microdilution susceptibility test; format: functional
# Acinetobacter baumannii [8] = assay: Antibacterial activity against Acinetobacter baumannii ATCC 19606 after 16 to 20 hrs by microdilution susceptibility test; format: functional; conditions: ATCC 19606 = CIP 70.34 = JCM 6841
# Staphylococcus aureus [9] = assay: Antibacterial activity against Staphylococcus aureus ATCC 25923 after 16 to 20 hrs by microdilution susceptibility test; format: functional
# [10] = Toxicity in defibrinated sheep RBC assessed as hemolysis at 25 uM by UV spectrometry; format: cell-based, Ovis aries, Erythrocyte; conditions: defibrinated sheep red blood cells, read-out: Activity
# [11] = Induction of pore-formation in synthetic 1-palmitoyl-2-oleoyl-sn-glycero-3-phosphoglycerol vesicles assessed as dye leakage at 25 uM; format: physicochemical
# Staphylococcus aureus [12] = assay: Antibacterial activity against methicillin-resistant Staphylococcus aureus BAA-44 at […] uM after 16 to 20 hrs by microdilution susceptibility test; format: functional
# Staphylococcus aureus [13] = assay: Ratio of MBC to MIC for Staphylococcus aureus BAA-44 after 16 to 20 hrs by microdilution susceptibility test
# [14] = Induction of pore-formation in synthetic 1-palmitoyl-2-oleoyl-sn-glycero-3-phosphoglycerol vesicles assessed as dye leakage at >500 uM; format: physicochemical
# [15] = Induction of pore-formation in synthetic 1-palmitoyl-2-oleoyl-sn-glycero-3-phosphocholine vesicles assessed as dye leakage at 25 uM; format: physicochemical
Compound,MIC (Acinetobacter baumannii [1]),MIC (Acinetobacter baumannii [2]),MIC (Staphylococcus aureus [3]),MIC (Staphylococcus aureus [5]),MIC (Acinetobacter baumannii [6]),MIC (Acinetobacter baumannii [7]),MIC (Acinetobacter baumannii [8]),"MIC (Staphylococcus aureus [4]; Staphylococcus aureus, BAA-44)",MIC (Staphylococcus aureus [9]),also measured
GENTAMICIN,> 400 µM,200 µM,6.2 µM,0.391 µM,> 400 µM,> 400 µM,100 µM,–,–,MIC (Staphylococcus aureus [4]): 200 µM
CCCCc1ccc(C(=O)Nc2ccc3[nH]c(N)nc3c2)cc1,100 µM,25 µM,12.5 µM,25 µM,25 µM,50 µM,50 µM,25 µM,25 µM,–
CCCCc1cn(-c2ccc(C(=O)Nc3ccc4[nH]c(N)nc4c3)cc2)nn1,–,–,–,–,–,–,–,> 400 µM,–,–
Nc1nc2cc(NC(=O)c3ccccc3)ccc2[nH]1,–,–,–,–,–,–,–,–,–,hemolysis at 25 µM [10]: < 1%
CN[C@@H]1[C@H](O[C@H]2[C@H](O[C@H]3[C@H](O)[C@@H](O)[C@H](N=C(N)N)[C@@H](O)[C@@H]3N=C(N)N)O[C@@H](C)[C@]2(O)C=O)O[C@@H](CO)[C@H](O)[C@H]1O [STREPTOMYCIN],–,–,0.391 µM,1.56 µM,–,–,–,> 200 µM,–,–
CCCCCCc1ccc(C(=O)Nc2ccc3[nH]c(N)nc3c2)cc1,50 µM,12.5 µM,6.25 µM,12.5 µM,12.5 µM,25 µM,50 µM,12.5 µM,12.5 µM,–
CCCCCc1ccc(C(=O)Nc2ccc3[nH]c(N)nc3c2)cc1.Cl,25 µM,12.5 µM,6.25 µM,12.5 µM,12.5 µM,25 µM,25 µM,12.5 µM,12.5 µM,"MBC50 (Staphylococcus aureus [4]): 5.88 µM; MBC90 (Staphylococcus aureus [4]): 11.15 µM; MBC (Staphylococcus aureus [4]; Staphylococcus aureus, BAA-44): 25 µM; Activity [11]: 16%; Activity (Staphylococcus aureus [12]): 99.15%; Ratio (Staphylococcus aureus [13]): 2; hemolysis at 25 µM [10]: < 1%; Activity [14]: > 50%; Activity [15]: 9%"
Nc1nc2cc(NS(=O)(=O)c3ccc4ccccc4c3)ccc2[nH]1,–,–,–,100 µM,–,–,–,100 µM,–,–
CCCCCCCc1ccc(C(=O)Nc2ccc3[nH]c(N)nc3c2)cc1,50 µM,12.5 µM,12.5 µM,25 µM,–,–,50 µM,25 µM,50 µM,–
Nc1nc2cc(NC(=O)c3ccc(-c4ccccc4)cc3)ccc2[nH]1,> 400 µM,> 400 µM,> 400 µM,> 400 µM,–,–,> 400 µM,> 400 µM,> 400 µM,–
CCCCCCCCCCCC(=O)Nc1ccc2[nH]c(N)nc2c1,12.5 µM,12.5 µM,12.5 µM,25 µM,12.5 µM,25 µM,25 µM,12.5 µM,50 µM,–
C[C@@H](O)[C@H]1C(=O)N2C(C(=O)O)=C(SCCNC=N)C[C@H]12 [IMIPENEM ANHYDROUS],200 µM,50 µM,–,–,50 µM,3.12 µM,0.391 µM,–,–,–
CN[C@H](CC(C)C)C(=O)N[C@H]1C(=O)N[C@@H](CC(N)=O)C(=O)N[C@H]2C(=O)N[C@H]3C(=O)N[C@H](C(=O)N[C@H](C(=O)O)c4cc(O)cc(O)c4-c4cc3ccc4O)[C@H](O)c3ccc(c(Cl)c3)Oc3cc2cc(c3O[C@@H]2O[C@H](CO)[C@@H](O)[C@H](O)[C@H]2O[C@H]2C[C@](C)(N)[C@H](O)[C@H](C)O2)Oc2ccc(cc2Cl)[C@H]1O [VANCOMYCIN],–,–,0.195 µM,0.391 µM,–,–,–,0.391 µM,0.391 µM,–
CCCCCCS(=O)(=O)Nc1ccc2[nH]c(N)nc2c1,–,–,100 µM,100 µM,–,–,–,100 µM,–,–
[N-]=[N+]=NCCc1ccsc1,–,> 400 µM,–,–,> 400 µM,> 400 µM,> 400 µM,–,–,–
NC[C@H]1O[C@H](O[C@H]2[C@H](O)[C@@H](O[C@H]3O[C@H](CO)[C@@H](O)[C@H](N)[C@H]3O)[C@H](N)C[C@@H]2N)[C@H](N)C[C@@H]1O [TOBRAMYCIN],> 400 µM,200 µM,–,–,6.25 µM,200 µM,25 µM,–,–,–
CCCCCCC(=O)Nc1ccc2[nH]c(N)nc2c1,> 400 µM,400 µM,–,–,> 400 µM,> 400 µM,> 400 µM,–,–,–
CCCCCCCCCCCCCCCCCC(=O)Nc1ccc2[nH]c(N)nc2c1,> 400 µM,> 400 µM,–,–,> 400 µM,> 400 µM,> 400 µM,–,–,–
[N-]=[N+]=Nc1ccc(C(=O)Nc2ccc3[nH]c(N)nc3c2)cc1,–,–,–,–,–,–,–,400 µM,–,–
CCCCCc1ccc(-c2c[nH]c(N)n2)cc1,–,–,–,–,–,–,–,12.5 µM,–,–
CCCCCc1ccc(C(=O)Nc2ccccc2)cc1,–,–,–,–,–,–,> 400 µM,> 400 µM,–,–
COc1cccc(OC)c1C(=O)N[C@@H]1C(=O)N2[C@@H]1SC(C)(C)[C@@H]2C(=O)O [METHICILLIN],–,–,–,3.13 µM,–,–,–,> 400 µM,–,–
CC1(C)S[C@@H]2[C@H](NC(=O)[C@H](N)c3ccccc3)C(=O)N2[C@H]1C(=O)O [AMPICILLIN],> 400 µM,> 400 µM,–,–,> 400 µM,> 400 µM,> 400 µM,–,–,–
CCCCCCCCCC(=O)Nc1ccc2[nH]c(N)nc2c1,25 µM,25 µM,12.5 µM,12.5 µM,25 µM,25 µM,25 µM,25 µM,25 µM,–
CC(C)(C)c1ccc(C(=O)Nc2ccc3[nH]c(N)nc3c2)cc1,100 µM,50 µM,50 µM,50 µM,100 µM,100 µM,100 µM,50 µM,100 µM,–
CCCCCCCCCCc1cn(-c2ccc(C(=O)Nc3ccc4[nH]c(N)nc4c3)cc2)nn1,–,–,–,–,–,–,–,> 400 µM,–,–
CN(C)[C@@H]1C(O)=C(C(N)=O)C(=O)[C@@]2(O)C(O)=C3C(=O)c4c(O)cccc4[C@@](C)(O)[C@H]3C[C@@H]12 [TETRACYCLINE],25 µM,6.25 µM,–,–,> 400 µM,> 400 µM,3.13 µM,–,–,–
O=C(O)c1cn(C2CC2)c2cc(N3CCNCC3)c(F)cc2c1=O [CIPROFLOXACIN],–,–,0.391 µM,0.391 µM,–,–,–,12.5 µM,–,–
